Results published in ChEMBL document CHEMBL3774388, “Synthesis and anti-cancer activity evaluation of 5-(2-carboxyethenyl)-isatin derivatives” (Eur J Med Chem, 2016).
Blank lines part the entries; values can stand above or below the compound they belong to. Activity calls are given as the source filed them. The calls are words filed in the database; no cut-off is given here.

Legend:
[1] = test system: Jurkat; experiment: Anticancer activity against human Jurkat cells after 48 hrs by MTT assay; assay type: functional, cell-based
[2] = test system: Jurkat; experiment: Induction of apoptosis in human Jurkat cells at 10 to 30 nM by Annexin-V-FITC/PI-staining based flow cytometric analysis; assay type: functional, cell-based; settings: TDE = time-dependent effect
[3] = test system: Jurkat; experiment: Induction of apoptosis in human Jurkat cells assessed as viable cells at 30 nM after 12 hrs by Annexin-V-FITC/PI-staining based flow cytometric analysis (reference value: 99.1%); assay type: functional; settings: read-out: Activity
[4] = Anticancer activity against human BT549 cells after 48 hrs by MTT assay; assay type: functional, cell-based; settings: BT-549, 48 h
[5] = test system: NCI-H1299; experiment: Anticancer activity against human NCI-H1299 cells after 48 hrs by MTT assay; assay type: functional, cell-based; settings: NCI-H1299, 48 h
[6] = test system: Jurkat; experiment: Induction of apoptosis in human Jurkat cells assessed as induction of cell shrinkage and blebbing at 10 and 30 nM incubated for 12 hrs by phase contrast microscopy; assay type: functional, cell-based
[7] = Anticancer activity against human SKOV3 cells after 48 hrs by MTT assay; assay type: functional, cell-based; settings: SK-OV-3, 48 h
[8] = Anticancer activity against human DU145 cells after 48 hrs by MTT assay; assay type: functional, cell-based; settings: DU-145, 48 h
[9] = test system: Jurkat; experiment: Induction of apoptosis in human Jurkat cells assessed as late apoptotic cells at 10 nM after 12 hrs by Annexin-V-FITC/PI-staining based flow cytometric analysis relative to control; assay type: functional
[10] = test system: HUVEC; experiment: Cytotoxicity against HUVEC cells after 48 hrs by MTT assay; assay type: cell-based; settings: Homo sapiens
[11] = test system: A549; experiment: Anticancer activity against human A549 cells after 48 hrs by MTT assay; assay type: functional, cell-based; settings: A549, 48 h
[12] = test system: Jurkat; experiment: Induction of apoptosis in human Jurkat cells assessed as increase in cells with reduction in mitochondrial membrane potential at 30 nM after 48 hrs by TMRM-staining based flow cytometric analysis ( Rvb = 7.8%); assay type: functional; parameters: scale not given: the % may be the effect or the level left
[13] = test system: HEK293; experiment: Cytotoxicity against HEK293 cells after 48 hrs by MTT assay; assay type: cell-based; settings: Homo sapiens, HEK293, 48 h
[14] = test system: Jurkat; experiment: Induction of apoptosis in human Jurkat cells assessed as increase in cells with reduction in mitochondrial membrane potential at 30 nM after 24 hrs by TMRM-staining based flow cytometric analysis ( Rvb = 7.8%); assay type: functional; parameters: scale not given: the % may be the effect or the level left
[15] = test system: Jurkat; experiment: Induction of apoptosis in human Jurkat cells assessed as early apoptotic cells at 10 nM after 12 hrs by Annexin-V-FITC/PI-staining based flow cytometric analysis relative to control; assay type: functional
[16] = Anticancer activity against human BT474 cells after 48 hrs by MTT assay; assay type: functional, cell-based; settings: BT-474, 48 h
[17] = test system: Jurkat; experiment: Induction of apoptosis in human Jurkat cells assessed as late apoptotic cells at 30 nM after 12 hrs by Annexin-V-FITC/PI-staining based flow cytometric analysis relative to control; assay type: functional
[18] = test system: Jurkat; experiment: Induction of apoptosis in human Jurkat cells assessed as necrotic cells at 10 nM after 12 hrs by Annexin-V-FITC/PI-staining based flow cytometric analysis (reference value: 0.8%); assay type: functional
[19] = test system: HeLa; experiment: Anticancer activity against human HeLa cells after 48 hrs by MTT assay; assay type: functional, cell-based
[20] = test system: A498; experiment: Anticancer activity against human A498 cells after 48 hrs by MTT assay; assay type: functional, cell-based; settings: A498, 48 h
[21] = test system: MCF7; experiment: Anticancer activity against human MCF7 cells after 48 hrs by MTT assay; assay type: functional, cell-based; settings: MCF7, 48 h
[22] = test system: Jurkat; experiment: Induction of apoptosis in human Jurkat cells using Z-DEVD-R110 as substrate assessed as caspase3 activation at 30 nM incubated for 18 hrs measured at 48 hrs by fluorescence analysis; assay type: functional, cell-based
[23] = test system: Jurkat; experiment: Induction of apoptosis in human Jurkat cells assessed as necrotic cells at 30 nM after 12 hrs by Annexin-V-FITC/PI-staining based flow cytometric analysis (reference value: 0.8%); assay type: functional
[24] = test system: Jurkat; experiment: Induction of apoptosis in human Jurkat cells assessed as early apoptotic cells at 30 nM after 12 hrs by Annexin-V-FITC/PI-staining based flow cytometric analysis relative to control; assay type: functional
[25] = test system: Jurkat; experiment: Induction of apoptosis in human Jurkat cells assessed as viable cells at 10 nM after 12 hrs by Annexin-V-FITC/PI-staining based flow cytometric analysis (reference value: 99.1%); assay type: functional; settings: read-out: Activity
[26] = Anticancer activity against human HCT116 cells after 48 hrs by MTT assay; assay type: functional, cell-based; settings: HCT-116, 48 h

Compound: COc1ccc(CN2C(=O)C(=O)c3cc(/C=C/C(N)=O)ccc32)cc1
IC50 [1]: 1610 nM

Compound: COC(=O)/C=C/c1cccc2c1N(Cc1ccc(OC)cc1)C(=O)C2=O
IC50 [1]: > 10000 nM

Compound: Cc1ccc2c(c1)C(=O)C(=O)N2
IC50 [1]: > 10000 nM

Compound: COc1ccc(CN2C(=O)C(=O)c3cc(/C=C/C(=O)OCCO)ccc32)cc1
IC50 [1]: 500 nM

Compound: COc1ccc2c(c1)C(=O)C(=O)N2 [5-METHOXYISATIN]
IC50 [1]: > 10000 nM

Compound: COC(=O)/C=C/c1ccc2c(c1)C(=O)C(=O)N2CCOc1ccccc1
IC50 [1]: 200 nM

Compound: CC[C@@]1(O)C(=O)OCc2c1cc1n(c2=O)Cc2cc3ccccc3nc2-1 [CAMPTOTHECIN]
IC50 [1]: 85 nM

Compound: COC(=O)/C=C/c1ccc2c(c1)C(=O)C(=O)N2Cc1ccc(OC)cc1
Activity [2]: tde | viability at 0.03 µM [3]: 56.1% | IC50 [4]: 70 nM | IC50 [1]: 30 nM | IC50 [5]: 30 nM | Activity [6]: Active | IC50 [7]: > 10000 nM | IC50 [8]: > 10000 nM | Activity [9]: 7.2% | IC50 [10]: > 10000 nM | IC50 [11]: > 10000 nM | Activity [12]: 81.9% | IC50 [13]: > 10000 nM | Activity [14]: 32% | Activity [15]: 28.5% | IC50 [16]: 5940 nM | Activity [17]: 6.5% | Activity [18]: 1.8% | IC50 [19]: 9120 nM | IC50 [20]: 5300 nM | IC50 [21]: 80 nM | Activity [22]: Active | Activity [23]: 1.9% | Activity [24]: 35.5% | viability at 0.01 µM [25]: 62.5% | IC50 [26]: 40 nM

Compound: COC(=O)/C=C/c1ccc2c(c1)C(=O)C(=O)N2Cc1ccc(C)cc1
IC50 [1]: 50 nM

Compound: COC(=O)/C=C/c1ccc2c(c1)C(=O)C(=O)N2Cc1cc(C)cc(C)c1
IC50 [1]: 620 nM

Compound: O=C1C(=O)N(Cc2ccc(Br)cc2)c2ccc(/C=C/C(=O)N3CCOCC3)cc21
IC50 [1]: 1430 nM

Compound: CCCCc1ccc2c(c1)C(=O)C(=O)N2
IC50 [1]: > 10000 nM

Compound: COC(=O)/C=C/c1ccc2c(c1)C(=O)C(=O)N2Cc1cccc(Br)c1
IC50 [1]: 120 nM

Compound: COC(=O)/C=C/c1ccc2c(c1)/C(=N/O)C(=O)N2Cc1ccc(OC)cc1
IC50 [1]: 9110 nM

Compound: CCCCOC(=O)/C=C/c1ccc2c(c1)C(=O)C(=O)N2Cc1ccc(Br)cc1
IC50 [1]: 700 nM

Compound: COC(=O)/C=C/c1ccc2c(c1)C(O)C(=O)N2Cc1ccc(OC)cc1 (stereo unspecified)
IC50 [1]: 30 nM

Compound: COC(=O)/C=C/c1ccc2c(c1)/C(=N/O)C(=O)N2Cc1ccc(Br)cc1
IC50 [1]: 5860 nM

Compound: O=C1Nc2ccc(Br)cc2C1=O
IC50 [1]: > 10000 nM

Compound: CCOC(=O)/C=C/c1ccc2c(c1)C(=O)C(=O)N2Cc1ccc(Br)cc1
IC50 [1]: 70 nM

Compound: COc1ccc(CN2C(=O)C(=O)c3cc(/C=C/C(=O)N4CCOCC4)ccc32)cc1
IC50 [1]: 4550 nM

Compound: O=C1Nc2ccc(F)cc2C1=O [5-FLUOROISATIN]
IC50 [1]: > 10000 nM

The remaining lines, values ahead:

IC50 [1]: 220 nM
Compound: CCCCOC(=O)/C=C/c1ccc2c(c1)C(=O)C(=O)N2Cc1ccc(OC)cc1

IC50 [1]: > 10000 nM
Compound: COC(=O)/C=C/c1ccc2c(c1)CC(=O)N2Cc1ccc(OC)cc1

IC50 [1]: 1040 nM
Compound: CC(C)(C)OC(=O)/C=C/c1ccc2c(c1)C(=O)C(=O)N2Cc1ccc(Br)cc1

IC50 [1]: 640 nM
Compound: COC(=O)/C=C/c1ccc2c(c1)C(=O)C(=O)N2Cc1ccc2ccccc2c1

IC50 [1]: > 10000 nM
Compound: COc1ccc(CN2C(=O)C(=O)c3cc(/C=C/C(=O)O)ccc32)cc1

IC50 [1]: 310 nM
Compound: COc1ccc(CN2C(=O)C(=O)c3cc(/C=C/C(=O)OC(C)(C)C)ccc32)cc1

IC50 [1]: 800 nM
Compound: COC(=O)/C=C/c1ccc2c(c1)C(=O)C(=O)N2Cc1ccccc1Br

IC50 [1]: 80 nM
Compound: COC(=O)/C=C/c1ccc2c(c1)C(=O)C(=O)N2Cc1ccc(C#N)cc1

IC50 [1]: 360 nM
Compound: COC(=O)/C=C/c1ccc2c(c1)C(=O)C(=O)N2Cc1ccc(C(F)(F)F)cc1

IC50 [1]: 3190 nM
Compound: O=C1C(=O)N(Cc2ccc(Br)cc2)c2ccc(/C=C/C(=O)N3CCCC3)cc21

IC50 [1]: 2340 nM
Compound: NC(=O)/C=C/c1ccc2c(c1)C(=O)C(=O)N2Cc1ccc(Br)cc1

IC50 [1]: 3110 nM
Compound: COC(=O)/C=C/c1ccc2c(c1)N(Cc1ccc(OC)cc1)C(=O)C2=O

IC50 [1]: > 10000 nM
Compound: O=C1Nc2ccc(Cl)cc2C1=O

IC50 [1]: 70 nM
Compound: COC(=O)/C=C/c1ccc2c(c1)C(=O)C(=O)N2Cc1ccccc1

IC50 [1]: 200 nM
Compound: COC(=O)/C=C/c1ccc2c(c1)C(=O)C(=O)N2

IC50 [1]: 1230 nM
Compound: COC(=O)/C=C/c1ccc2c(c1)C(O)C(=O)N2Cc1ccc(Br)cc1 (stereo unspecified)

IC50 [1]: 260 nM
Compound: COC(=O)/C=C/c1ccc2c(c1)C(=O)C(=O)N2Cc1ccc(Cl)cc1

IC50 [1]: 850 nM
Compound: COC(=O)/C=C/c1ccc2c(c1)C(=O)C(=O)N2Cc1ccc(Cl)c(Cl)c1

IC50 [1]: 30 nM
Compound: CCOC(=O)/C=C/c1ccc2c(c1)C(=O)C(=O)N2Cc1ccc(OC)cc1

IC50 [1]: > 10000 nM
Compound: O=C1Nc2ccccc2C1=O [ISATIN]

IC50 [1]: > 10000 nM
Compound: COC(=O)/C=C/c1ccc2c(c1)CC(=O)N2Cc1ccc(Br)cc1

IC50 [1]: 250 nM
Compound: COC(=O)/C=C/c1ccc2c(c1)C(=O)C(=O)N2C

IC50 [1]: 60 nM
Compound: COC(=O)/C=C/c1ccc2c(c1)C(=O)C(=O)N2Cc1ccc(Br)cc1

IC50 [1]: > 10000 nM
Compound: COC(=O)/C=C/c1ccc2c(c1)C1(OCCO1)C(=O)N2Cc1ccc(OC)cc1

IC50 [1]: 400 nM
Compound: O=C(/C=C/c1ccc2c(c1)C(=O)C(=O)N2Cc1ccc(Br)cc1)OCCO

IC50 [1]: 380 nM
Compound: COC(=O)/C=C/c1ccc2c(c1)C(=O)C(=O)N2Cc1ccc(F)cc1

IC50 [1]: 790 nM
Compound: COC(=O)/C=C/c1cccc2c1C(=O)C(=O)N2Cc1ccc(OC)cc1

IC50 [1]: 2240 nM
Compound: COc1ccc(CN2C(=O)C(=O)c3cc(/C=C/C(=O)N4CCCC4)ccc32)cc1

IC50 [1]: 200 nM
Compound: CCN1C(=O)C(=O)c2cc(/C=C/C(=O)OC)ccc21

IC50 [1]: > 10000 nM
Compound: COC(=O)/C=C/c1ccc2c(c1)C1(OCCO1)C(=O)N2Cc1ccc(Br)cc1
